According to patent US20250127806A1, “INJECTABLE LIQUID PHARMACEUTICAL COMPOSITION CONTAINING GEMCITABINE AND A CYTIDINE DEAMINASE INHIBITOR” (ST. JOHN'S UNIVERSITY, priority 2021, published 2025):
≈ marks a conversion by molar mass, not a printed value.

Legend:
[1] = Saturation solubility of Gemcitabine free base in various solvents; format: physicochemical; conditions: for solubility: thermodynamic from solid
Source text: In order to select a biocompatible solvent for the development of in situ depot, we carried out saturation solubility of Gemcitabine free base in 12 different organic solvent which are safe to be used for subcutaneous administration in mice. […] However, since NMP is already used in marketed in situ depot formulations and is FDA approved, we used it as a biocompatible solvent to prepare the various polymeric solutions.

[2] = system: MIAPACA-2 xenograft tumors; format: in vivo; conditions: s.c. depot every 3rd day, four doses, Gem 10 mg/kg, Zeb 76 mg/kg
Protocol: All experiments were done in accordance with the guidelines of the Institutional Animal Care and Use Committee (IACUC) at St John's university. MiaPaca-2 pancreatic cancer cells were maintained in DMEM medium supplemented with 100 U/mL penicillin, 1% streptomycin, 10% fetal bovine serum (FBS), in a humidified 5% CO2 atmosphere at 37° C. After acclimation for 7 days, mice were subcutaneously (s.c.) injected in the right flank with Matrigel (BD Biosciences, San Jose, CA, USA) containing 1.5×10^6 MiaPaca-2 cells. The mice were monitored closely for tumor growth by palpation and visual examination. Palpable and measurable tumors were found beginning 5-7 days after cells were injected. Tumor volume was calculated using the equation: tumor volume=(length×width×height)/2. Once the tumors reached a size of 80-120 mm^3 mice were randomly divided into 4 groups to receive s.c. injection (N=6 in each group) of respective in situ depot formulation.
Total four doses of each formulation were given. A syringe with 27G needle was used to administer 10 ul of depot formulation. Post administration, the syringe was left in the same position for 30 sec in order to obviate the sudden leakage of formulation and to facilitate the gelling of entire volumes of formulations at 37° C. Measurements of tumor size and body weight was taken every alternate day using digital calipers. […]

With Nc1ccn([C@@H]2O[C@H](CO)[C@@H](O)C2(F)F)c(=O)n1 [Gemcitabine free base, Gemcitabine] the solubility ([1]; N,N-dimethylacetamide (DMA), organic solvent or mixture, saturation solubility in N,N Dimethylacetamide (DMA)) was roughly 616 mg/mL (≈ 2340 mM), the solubility ([1]; N-methyl pyrrolidone (NMP), organic solvent or mixture, saturation solubility in N-methyl pyrrolidone (NMP)) was roughly 470 mg/mL (≈ 1790 mM) and the solubility ([1]; diglyme, organic solvent or mixture, saturation solubility in Diglyme) was 3.81 ± 0.63 mg/mL (≈ 14.5 mM). It also gave a solubility ([1]; ethyl lactate, organic solvent or mixture, saturation solubility in Ethyl lactate) of 18.4 ± 0.34 mg/mL (≈ 69.7 mM), a solubility ([1]; glycerol formal, organic solvent or mixture, saturation solubility in Glycerol formal) of 104 ± 2.03 mg/mL (≈ 397 mM) and a solubility ([1]; isosorbide dimethyl ether, organic solvent or mixture, saturation solubility in Isosorbide dimethyl ether) of 8.39 ± 0.4 mg/mL (≈ 31.9 mM). For the same compound, the solubility ([1]; polyethylene glycol 300, organic solvent or mixture, saturation solubility in Polyethylene glycol 300) was 185 ± 13.3 mg/mL (≈ 703 mM), the solubility ([1]; polyethylene glycol 400, organic solvent or mixture, saturation solubility in Polyethylene glycol 400) was 151 ± 2.89 mg/mL (≈ 572 mM) and the solubility ([1]; propylene glycol, organic solvent or mixture, saturation solubility in Propylene glycol) was 160 ± 8.29 mg/mL (≈ 609 mM). For the same compound, the “Solubility of Gemcitabine free base” value ([1]; saturation solubility in N-methyl pyrrolidone (NMP)) was 470.70 ± 3.56 mg/mL, the solubility ([1]; solketal, organic solvent or mixture, saturation solubility in Solketal) was 17.73 ± 0.008 mg/mL (≈ 67.4 mM) and the solubility ([1]; tetraglycol/glycofurol, organic solvent or mixture, saturation solubility in Tetraglycol/Glycofurol) was 129 ± 1.49 mg/mL (≈ 492 mM). For the same compound, the solubility ([1]; tetrahydrofurfuryl alcohol, organic solvent or mixture, saturation solubility in Tetrahydrofurfuryl alcohol) was 221 ± 4.97 mg/mL (≈ 841 mM), the solubility ([1]; water, saturation solubility in Water) was 21.8 ± 1.44 mg/mL (≈ 82.9 mM) and the “Antitumor efficacy (tumor volume)” value ([2]; FIG. 3(a)) was “decreased the tumor volume”. For the same compound, the Median survival ([2]; FIG. 3(c)) was “around 18 days”.
